Laboratory results as given in patent US20080267947A1, “Cancer therapy with cantharidin and cantharidin analogs” (priority 2006, published 2008).
Read-outs that look alike come from different tables or passages of the source.

Key:
[1] = XTT colorimetric cytotoxicity assay on cord blood CD34+ cells; format: cell-based; details: CD34+ cells from normal human cord blood; FIG. 1; read-out: IC50, cytotoxicity against CD34+ cells (XTT)
Experimental: (§1) Determination of cell viability using the XTT assay: In some cases, CD34+ cells are isolated from human cord blood using magnetic beads coated with anti-CD34 antibody. Isolated cells are then counted and aliquoted into 96-well plates and then incubated in the presence of varying concentrations of cantharidin or norcantharidin. Cell viability it measured by the addition of the XTT calorimetric reagent. Viability is determined by the absorbance of treated cultures at approximately 450-500 nm compared to untreated cultures. In other cases, the cells used in the assay may be a leukemia cell line, such as MV4; 11. The assay can also be used to determine the time course of cell killing by various compounds by performing the XTT assay on cultures that are incubated with the compounds for varying periods of time.
(§2) CD34^+ cells were obtained from normal human cord blood by magnetic bead selection using anti-CD34 antibody coated beads. The cytotoxicity of cantharidin and norcantharidin against these cells was measured by a colorimetric assay using XTT (sodium 3′-{1-[(phenylamino)-carbonyl]-3,4-tetrazolium}-bis(4-methoxy-6-nitro) benzene-sulfonic acid hydrate). […] The absorbance of the supernatant was measured at 450 and 630 nm of wells without drug (with cells) as 100% and wells without cells as 0%. […]

[2] = system: CD34+ cells obtained from a leukemia patient (leukemic cancer stem cells); experiment: Cobblestone area forming cell (CAFC) assay, leukemia patient versus cord blood CD34+ cells; format: cell-based, human; details: 10 μM and 75 μM overnight; for sensitivity of leukemia cancer stem cells relative to normal stem cells (cord blood CD34+): CAFC, 5 weeks; for activity against leukemic cancer stem cells (cobblestone area counts vs control): cobblestone areas counted after 5 weeks on MS-5 monolayer, FIGS. 2 and 3
Experimental: (§3) Cobblestone assay: The cobblestone area-forming cell (CAFC) assay exploits a reproducible visual end point for the quantitation of cancer stem cells. Leukemia samples are added to adherent cultures of stromal cells, some embodiments MS-5 stromal cells. The cancer stem cells in the culture will migrate below the MS-5 stromal cells and form a colony of cells called a cobblestone that can be visual quantitated. To test the effect of cantharidin or norcantharidin on the cancer stem cell population using this assay, cells are first cultured in the presence of the drug. In some embodiments the cells are cultured for 16 hours. After this incubation, the cells are added to the stromal cultures. A reduction in the cobblestone area formation in cultures that were treated with the drug compared to the untreated cells represents cancer stem cell activity for the drug.
Cells were treated with 10 μM and 75 μM cantharidin or norcantharidin overnight. To assay for stem cells by the cobblestone area forming cell (CAFC) assay, CD34^+ cells subsequent to drug treatment were co-cultured with the MS-5 monolayer in X-Eagle minimum essential medium (α-MEM) containing 10% heat-inactivated FCS, 10% horse serum, 1×10^−6 M hydrocortisone, 2 mM L-glutamine, and 100 U/mL penicillin/streptomycin. After 5 weeks in culture, total cobblestone areas were counted. FIGS. 2 and 3 show bar graphs representing cobblestone area counts in the presence of no drug (control) and 10 and 75 μM of cantharidin and norcantharidin, respectively, using CD34+ cells obtained from a leukemia patient, and CD34+normal stem cells isolated from human cord blood.

[3] = system: MV4; 11 leukemia cells; experiment: XTT cytotoxicity assay on MV4;11 leukemia cells, 5 days exposure; format: cell-based; details: 5 days of exposure to drug, read-out: IC50, cytotoxicity against MV4;11 leukemia cells (XTT)
Experimental: as §1
The cytotoxicity of Cantharidin and Norcantharidin against MV4; 11 leukemia cells was measured by a calorimetric assay using XTT. MV4; 11 cells were plated in 96-well plates and the following day, cells were exposed to varying doses of cantharidin and norcantharidin. After 5 days of exposure to drugs, 50 μL of 1 mg/mL XTT and 0.025 mM phenazine methosulfate (PMS) were added. The absorbance of the supernatant was measured at 450 and 630 nm of wells not treated with drug (with cells) as 100% and wells without cells as 0%.

[4] = system: MV4; 11 cells; experiment: XTT time course of killing of MV4;11 cells; format: cell-based; details: at 72 hours
Experimental: as §1
The XTT assay was used to determine the time course of killing of MV4; 11 cells incubated with cantharidin and norcantharidin over time.
Cantharidin was dissolved in DMSO at different concentrations to ensure that final concentrations of DMSO are equivalent in all wells. To control for potential cytotoxic effects of DMSO itself, an equivalent amount of DMSO containing no drug was used as a control.
Norcantharidin was dissolved in DMSO at different concentrations to ensure that final concentrations of DMSO are equivalent in all wells. To control for potential cytotoxic effects of DMSO itself, an equivalent amount of DMSO containing no drug was used as a control.

[5] = system: leukemia stem cells from bone marrow of a patient with acute myelgenous leukemia (AML); experiment: CAFC assay of leukemia stem cells treated with cantharidin and standard chemotherapy; format: cell-based, human; details: 16 hours treatment, each of the concentrations tested; cobblestone areas after 5 weeks; FIG. 6
Experimental: as §3
Samples of primary human cord blood as well as from the bone marrow of a patient with acute myelgenous leukemia (AML) were tested. Cantharidin and norcantharidin were dissolved in DMSO, and Ara-c and daunorubicin were prepared according to the supplier's instructions. In addition, untreated controls (diluent alone) for both normal and leukemic CD34+ cells were also tested. Cells were treated with varying concentrations of drug for 16 hours. […] After 5 weeks in culture, total cobblestone areas were counted visually using a microscope.

[6] = system: CD34+ cells from normal human cord blood; experiment: XTT colorimetric cytotoxicity assay on cord blood CD34+ cells; format: cell-based; details: FIG. 1, read-out: IC50, cytotoxicity against CD34+ cells (XTT)
Experimental: as §1, §2

| SMILES | IC50 [1] [µM] | sensitivity of leukemia cancer stem cells relative to normal stem cells (cord blood CD34+) [2] | activity against leukemic cancer stem cells (cobblestone area counts vs control) [2] | IC50 ([3]; Homo sapiens, MV4-11, 120 h) [µM] | viability at 30 µM ([4]; Homo sapiens, MV4-11, 30 μM, read-out: cell viability of MV4;11 cells) [%] | viability at 100 µM ([4]; Homo sapiens, MV4-11, 100 μM, read-out: cell viability of MV4;11 cells) [%] | sensitivity of leukemia stem cells compared with cytarabine or daunorubicin (CAFC) [5] | IC50 [6] [µM] | IC50 [3] [µM] | cell viability of MV4;11 cells ([4]; 30 μM) | cell viability of MV4;11 cells ([4]; 100 μM) |
| --- | --- | --- | --- | --- | --- | --- | --- | --- | --- | --- | --- |
| C[C@@]12C(=O)OC(=O)[C@]1(C)[C@H]1CC[C@@H]2O1 [cantharidin] | 6.5 | increased sensitivity | potent activity | 7.5 | < 10 | < 10 | more sensitive |  |  |  |  |
| O=C1OC(=O)[C@H]2[C@@H]1[C@@H]1CC[C@H]2O1 [norcantharidin] |  | increased sensitivity | potent activity |  |  |  |  | 52 | 24 | less than 10% | less than 10% |
